These results are taken from patent US4591552A, “Detection of hepatitis B surface antigen (or antibody to same) with labeled synthetic peptide” (priority 1982, dated 1986).

The subject of this assay is antiserum to the synthetic peptide. In words: Competition immunoassay: binding to Staphylococci (protein A) of β-galactosidase-conjugated peptide 135-155 complexed with homologous antibodies. The following applies: control antigens. Further details: species or system rabbit. The procedure:
It is known that immunoglobulins of the IgG class attach to Staphylococci carrying protein A. If the immunoglobulins are bound to labeled antigens thus forming immune complexes, such (labeled) complexes attach to the Staphylococci. […] The above forms the basis of the following test:
250 μl of mixtures containing various unlabeled antigens, 1:125 diluted antiserum to the synthetic peptide (see Example 3 above), 1:8,000 diluted peptide-β-galactosidase conjugate (see Example 2 above) and 50 mg/ml of bovine serum albumin (BSA) were each incubated for 30 minutes at 37° C. and mixed with an equal volume of a 2.5% suspension of Staphylococci (Pansorbin, Calbiochem, LaJolla, Calif.). The bacteria were pelleted, washed with tris-buffered saline, and the adsorbed β-galactosidase corresponding to the enzyme-peptide conjugate was determined fluorometrically as described by Neurrath and Strick, J. Virol. Methods, supra. The fluorescence in the absence of unlabeled competing antigens was 900.

For the substance “synthetic insulin A chain: control antigen”, the “inhibitory effect on binding of β-galactosidase activity to the bacteria” value is listed as “did not have any inhibitory effect”.
